Literature values in patent publication US20230364129A1, “TOPICAL COMPOSITIONS” (Prime Performance Research LLC, priority 2022, published 2023).

Tests used:
[1] = carnosine 200 μmol/L; hydroxyl and/or peroxy-type radicals (Drafi, 2010)
[2] = system: human colorectal cancer cells; details: by suppressing NF-κB/STAT1 signaling (Lee, 2018)
[3] = system: NF-κB transcription factor in antigen presenting cells
[4] = system: hind paw oedema, synovitis and destruction of the articular cartilage; details: orally administered; several animal studies (Volpi, 2011)

effect on hyaluronan degradation [1]	Molecule	cell cycle arrest and apoptosis [2]	activation of the NF-κB transcription factor ([3]; antigen presenting cells (Zhang, 2015))	TNF-α production ([3]; through the TLR/MyD88 pathway (Zhang, 2015))	hind paw oedema, synovitis and destruction of the articular cartilage [4]
protective action	NCCC(=O)N[C@@H](Cc1cnc[nH]1)C(=O)O [carnosine, beta-alanyl-L-histidine]	induces cell cycle arrest and apoptosis			
	Chondroitin sulfate [CS]		could activate	induce TNF-α production	significantly inhibited
